Laboratory results as given in patent US20230293490A1, “PROFILIN1:ACTIN INHIBITOR AS AN ANTI-ANGIOGENIC COMPOUND” (University of Pittsburgh- Of the Commonwealth System of …, priority 2020, published 2023).

Legend:
human dermal VEC = assay: Matrigel cord assay (in vitro angiogenesis); type: cell-based; details: for concentration able to inhibit angiogenesis: matrigel cord assay, human dermal VEC
Description: (§1) Note that contrasting its effect in cells, in biochemical assay Pfn1 inhibits actin polymerization by actin sequestering, and neither compound affects actin polymerization kinetics without the presence of Pfn1 (an important screening criterion).
(§2) Cell culture, transfection and viral transduction: Murine VHL-deleted variant of RENCA (referred to as RVN cells) cells were cultured in DMEM with 10% (v/v) FBS and 1% (v/v) antibiotics. Human VHL-negative 786-0 cells (source: ATCC) were cultured in RPMI-1640 media supplemented with 10% (v/v) FBS and antibiotics. HmVEC-1, a widely used immortalized human dermal microvascular EC line (ATCC; CRL-3243—referred to as VEC), were cultured in MCDB-131 (Life Technologies; Carlsbad, CA) growth medium supplemented with 10% (v/v) FBS, 1% (v/v) antibiotics, 10 ng/mL EGF, 1 μg/mL Hydrocortisone and 10 mM L-Glutamine. For adenovirus infection, cells were plated, allowed to attach and then infected with adenovirus encoding either GFP (Ad-GFP) or Pfn1 (Ad-Pfn1) at a MOI of 500 for 24 h, before further incubation for an additional 48h in fresh culture media prior to use. For knockdown studies, cells were transfected with 50 nM of either smart-pool control or Pfn1 siRNA for 72 h.

[1] = system: human renal cancer cell line; assay: Human renal cancer cell line proliferation; type: cell-based; details: dose dependent
RENCA cells = assay: Subcutaneous RENCA tumor model, daily intratumoral injection; type: in vivo, Balb/c mice
Source text: To determine whether C74 has any therapeutic benefit in vivo, we performed an exploratory study in which we established subcutaneous tumors by transplantation of RENCA cells in syngeneic Balb/c mice and injected either C74 or DMSO (vehicle) directly at the tumor cell inoculation site daily over a course of 19 days starting from day 1.
In vivo tumorigenesis: In 6 to 8 week old BALB/cJ mice, 1×10^6 RENCA cells were implanted subcutaneously in a 1:1 PBS:Matrigel (R&D Systems; Minneapolis, MN) mixture, supplemented with 81 μg C74 or DMSO control. Intratumoral injections were then given daily with either 320 μg C74 or control dissolved in saline, through day 19 post-implantation. On day 20, mice were sacrificed and harvested tumors were weighed. All animal experiments were performed according to the institutionally approved animal welfare guidelines.

RVN cells [2] = assay: Serum-induced chemotactic (transwell) migration of RVN cells; type: cell-based, murine; details: dose-dependent
Description: as §2, with “For knockdown studies, cells were transfected with 50 nM of either smart-pool control or Pfn1 siRNA for 72 h.” left out
(§3) Cell migration and proliferation assays: For single-cell migration experiments, RVN, VEC and 786-0 cells were plated in 24-well plates coated with type I collagen (Millipore) overnight. […] For cell proliferation assay, one thousand RCC cells were plated per well in 96-well plates using quadruplicate determinations, with proliferation assessed by time-course analyses of DAPI-stained nuclei based on images acquired over 3 to 5 random fields per well.

choroidal explant = assay: Choroidal explant angiogenesis culture (ex vivo)
choroidal NV = assay: Laser-induced choroidal NV (CNV) model, IVT injection; type: in vivo, mice; details: IVT C74 (50 μM)
Description: FIGS. 8A-8D. […] Laser-induced choroidal NV (CNV—an in vivo model that induces sub-retinal NV in response to laser injury in mice and is widely used to study NV aspects of wet AMD) in the settings of IVT injection of either DMSO (VEH) or C74 (50 μM) (panel C) and associated quantification (panel D).

[3] = system: human retinal endothelial cells; assay: Angiogenic capability of human retinal endothelial cells in vitro; type: cell-based
[4] = system: human renal cancer cell line; assay: Human renal cancer cell line migration; type: cell-based; details: dose dependent
Pfn1-actin interaction = assay: Pyrene-actin polymerization assay; type: biochemical
Source text: as §1

RVN cells [5] = assay: RVN cell proliferation assay; type: cell-based, murine; details: dose-dependent
Description: as §2, with “For knockdown studies, cells were transfected with 50 nM of either smart-pool control or Pfn1 siRNA for 72 h.” left out
as §3

| SMILES | concentration able to inhibit angiogenesis (human dermal VEC) [µM] | proliferation [1] | average end-point tumor burden (tumor weight) (RENCA cells; daily injection at tumor site over 19 days, tumors weighed day 20, n=10 animals) [mg] | tumor angiogenesis (CD31-positive immune-reactive region of tumor histosections) (RENCA cells; daily intratumoral administration, relative to DMSO) | range of concentrations reducing migration (RVN cells [2]) [µM] | fold lower concentration than C2 to inhibit angiogenesis (human dermal VEC; C74 vs C2) [fold] | choroidal neovascularization ex vivo (choroidal explant) | choroidal neovascularization in vivo (choroidal NV) | angiogenic capability [3] | migration [4] | reversal of Pfn1's inhibition of actin polymerization (Pfn1-actin interaction; actin plus Pfn1, fluorescence measures actin polymerization) | effect on actin polymerization without Pfn1 (Pfn1-actin interaction; compound alone, no Pfn1) | range of concentrations reducing proliferation (RVN cells [5]) [µM] |
| --- | --- | --- | --- | --- | --- | --- | --- | --- | --- | --- | --- | --- | --- |
| Oc1cccc(C2c3c(-c4ccccc4)nnc(O)c3Nc3nnnn32)c1 (centres unmarked) [C2, 8-(3-hydroxyphenyl)-10-phenyl-2,4,5,6,7,11,12-heptaazatricyclo[7.4.0.0^3,^7]trideca-1(13),3,5,9,11-pentaen-13-ol, reference compound] | 50 | – | – | – | – | – | – | – | – | – | – | – | – |
| Cc1n[nH]c(O)c1C(c1ccc(Br)cc1)c1c(C)n[nH]c1O [C74, 4-[(4-bromophenyl)(5-hydroxy-3-methyl-1H-pyrazol-4-yl)methyl]-3-methyl-1H-pyrazol-5-ol] | 10 | reduced | 978.8 ± 366.0 | reduces tumor angiogenesis | 10 to 25 | ~5 | inhibited | inhibited | inhibited | reduced | can reverse Pfn1's inhibition of actin polymerization | does not significantly alter actin polymerization on its own | 10 to 25 |
